≈ marks a conversion by molar mass, not a printed value. One block for each molecule: values may come before it.
Assay: Solubility in PBS
Format: physicochemical
Conditions: for solubility at 15 min: Solubility (uM)
Method: After ultracentrifugation of the PBS solution, the supernatant was analyzed by HPLC and compared to an HPLC injection 50 μM peptide DMSO solution. Solubility was determined by: [(Area of PBS peak)/(Area of DMSO peak)]*50 uM.

SMILES: CC(=O)N1CCC[C@]12CC=CCCCC1(CCCC=CCCCOC(=O)N3CC[C@@](C(=O)N[C@@H](CC4CCCCC4)C(=O)N[C@@H](Cc4csc5ccccc45)C(=O)N[C@@H](CCC(N)=O)C(N)=O)(C3)NC(=O)[C@H](CC(N)=O)NC(=O)[C@H](Cc3ccccc3)NC(=O)[C@H](C)NC(=O)[C@H](C)NC(=O)[C@H](CC(=O)O)NC(=O)[C@H](CC(=O)O)NC1=O)NC(=O)[C@H](CC(C)(C)C)NC(=O)[C@H](CC(=O)O)NC2=O (stereo partly drawn) [I-1329, PL3-Asp-Npg-B5-Asp-Asp-Ala-Ala-Phe-Asn-PyrS2-Cha-BztA-Gln-NH2]
solubility at 15 min: 45 µM (≈ 86.3 µg/mL)

SMILES: COc1ccccc1C[C@H](NC(=O)[C@]12CCN(C1)C(=O)OCCCC=CCCCC1(CCCC=CC[C@]3(CCCN3C(C)=O)C(=O)N[C@@H](CC(=O)O)C(=O)N[C@@H](CC(C)(C)C)C(=O)N1)C(=O)N[C@@H](CC(=O)O)C(=O)N[C@@H](CC(=O)O)C(=O)N[C@@H](C)C(=O)N[C@@H](C)C(=O)N[C@@H](Cc1ccccc1)C(=O)N[C@@H](Cc1ccccc1)C(=O)N2)C(=O)N[C@@H](Cc1csc2ccccc12)C(=O)N[C@@H](CCC(N)=O)C(N)=O (stereo partly drawn) [I-1328, PL3-Asp-Npg-B5-Asp-Asp-Ala-Ala-Phe-Phe-PyrS2-2OMeF-BztA-Gln-NH2]
solubility at 15 min: 26 µM (≈ 51.4 µg/mL)

SMILES: COCCC(=O)N1CCC[C@]12CC=CCCCC1(CCCC=CCCCOC(=O)N3CC[C@@](C(=O)N[C@@H](Cc4ccccc4)C(=O)N[C@@H](Cc4csc5ccccc45)C(=O)N[C@@H](CO)C(N)=O)(C3)NC(=O)[C@H](CO)NC(=O)[C@H](Cc3ccccc3)NC(=O)[C@H](C)NC(=O)[C@H](C)NC(=O)[C@H](CC(=O)O)NC(=O)[C@H](CC(=O)O)NC1=O)NC(=O)[C@H](CC(C)(C)C)NC(=O)[C@H](CC(=O)O)NC2=O (stereo partly drawn) [I-1357, PL3-Asp-Npg-B5-Asp-Asp-Ala-Ala-Phe-Ser-PyrS2-Phe-BztA-Ser-NH2]
solubility at 15 min: 48 µM (≈ 90.6 µg/mL)

SMILES: CC(=O)N1CCC[C@]12CC=CCCCC1(CCCC=CCCCOC(=O)N3CC[C@@](C(=O)N[C@@H](Cc4ccccc4Cl)C(=O)N[C@@H](Cc4csc5ccccc45)C(=O)N[C@@H](CCC(N)=O)C(N)=O)(C3)NC(=O)[C@H](CC(C)C)NC(=O)[C@H](Cc3ccccc3)NC(=O)[C@H](C)NC(=O)[C@H](C)NC(=O)[C@H](Cc3cccc(C(=O)O)c3)NC(=O)[C@H](CC(=O)O)NC1=O)NC(=O)[C@H](CC(C)(C)C)NC(=O)[C@H](CC(=O)O)NC2=O (stereo partly drawn) [I-1332, PL3-Asp-Npg-B5-Asp-3COOHF-Ala-Ala-Phe-Leu-PyrS2-2C1F-BztA-Gln-NH2]
solubility at 15 min: 13 µM (≈ 26.3 µg/mL)

SMILES: CCN(CC)C(=O)[C@H](CCC(N)=O)NC(=O)[C@H](Cc1csc2ccccc12)NC(=O)[C@H](Cc1ccsc1)NC(=O)[C@]12CCN(C1)C(=O)OCCCC=CCCCC1(CCCC=CC[C@]3(CCCN3C(C)=O)C(=O)N[C@@H](CC(=O)O)C(=O)N[C@@H](CC(C)(C)C)C(=O)N1)C(=O)N[C@@H](CC(=O)O)C(=O)N[C@@H](CC(=O)O)C(=O)N[C@@H](C)C(=O)N[C@@H](C)C(=O)N[C@@H](Cc1ccccc1)C(=O)N[C@@H](CC(N)=O)C(=O)N2 (stereo partly drawn) [I-1373, PL3-Asp-Npg-B5-Asp-Asp-Ala-Ala-Phe-Asn-PyrS2-3Thi-BztA-Gln-NEt2]
Solubility: 50 µM (≈ 98.7 µg/mL)

SMILES: CC(=O)N1CCC[C@]12CC=CCCCC1(CCCC=CCCCOC(=O)N3CC[C@@](C(=O)N[C@@H](Cc4ccccc4Cl)C(=O)N[C@@H](Cc4csc5ccccc45)C(=O)N[C@@H](CCC(N)=O)C(N)=O)(C3)NC(=O)[C@H](Cc3ccccc3)NC(=O)[C@H](Cc3ccccc3)NC(=O)[C@H](C)NC(=O)[C@H](C)NC(=O)[C@H](Cc3cccc(C(=O)O)c3)NC(=O)[C@H](CC(=O)O)NC1=O)NC(=O)[C@H](CC(C)(C)C)NC(=O)[C@H](CC(=O)O)NC2=O (stereo partly drawn) [I-1338, PL3-Asp-Npg-B5-Asp-3COOHF-Ala-Ala-Phe-Phe-PyrS2-2C1F-BztA-Gln-NH2]
Solubility: 10 µM (≈ 20.6 µg/mL)

SMILES: CC(=O)N1CCC[C@]12CC=CCCCC1(CCCC=CCCCOC(=O)N3CC[C@@](C(=O)N[C@@H](Cc4ccsc4)C(=O)N[C@@H](Cc4csc5ccccc45)C(=O)N[C@@H](CCC(N)=O)C(=O)NC4CCCCC4)(C3)NC(=O)[C@H](CC(N)=O)NC(=O)[C@H](Cc3ccccc3)NC(=O)[C@H](C)NC(=O)[C@H](C)NC(=O)[C@H](CC(=O)O)NC(=O)[C@H](CC(=O)O)NC1=O)NC(=O)[C@H](CC(C)(C)C)NC(=O)[C@H](CC(=O)O)NC2=O (stereo partly drawn) [I-1374, PL3-Asp-Npg-B5-Asp-Asp-Ala-Ala-Phe-Asn-PyrS2-3Thi-BztA-Gln-NHCyHe]
Solubility: 10 µM (≈ 20 µg/mL)

SMILES: CC(=O)N1CCC[C@]12CC=CCCCC1(CCCC=CCCCOC(=O)N3CC[C@@](C(=O)N[C@@H](Cc4ccccc4Cl)C(=O)N[C@@H](Cc4csc5ccccc45)C(=O)N[C@@H](CO)C(N)=O)(C3)NC(=O)[C@H](Cc3ccccc3)NC(=O)[C@H](Cc3ccccc3)NC(=O)[C@H](C)NC(=O)[C@H](C)NC(=O)[C@H](Cc3cccc(C(=O)O)c3)NC(=O)[C@H](CC(=O)O)NC1=O)NC(=O)[C@H](CC(C)(C)C)NC(=O)[C@H](CC(=O)O)NC2=O (stereo partly drawn) [I-1339, PL3-Asp-Npg-B5-Asp-3COOHF-Ala-Ala-Phe-Phe-PyrS2-2C1F-BztA-Ser-NH2]
Solubility: 10 µM (≈ 20.1 µg/mL)

SMILES: CC(=O)N1CCC[C@]12CC=CCCCC1(CCCC=CCCCOC(=O)N3CC[C@@](C(=O)N[C@@H](Cc4ccccc4C(F)(F)F)C(=O)N[C@@H](Cc4csc5ccccc45)C(=O)N[C@H](CO)[C@@H](C)O)(C3)NC(=O)[C@H](CC(C)C)NC(=O)[C@H](Cc3ccccc3)NC(=O)[C@H](C)NC(=O)[C@H](C)NC(=O)[C@H](Cc3cccc(C(=O)O)c3)NC(=O)[C@H](CC(=O)O)NC1=O)NC(=O)[C@H](CC(C)(C)C)NC(=O)[C@H](CC(=O)O)NC2=O (stereo partly drawn) [I-1337, PL3-Asp-Npg-B5-Asp-3COOHF-Ala-Ala-Phe-Leu-PyrS2-2F3MeF-BztA-Thro1]
Solubility: 10 µM (≈ 20.2 µg/mL)

The remaining lines, values ahead:

solubility at 15 min: 25 µM (≈ 49.8 µg/mL)
SMILES: CC(=O)N1CCC[C@]12CC=CCCCC1(CCCC=CCCCOC(=O)N3CC[C@@](C(=O)N[C@@H](Cc4ccccc4Br)C(=O)N[C@@H](Cc4csc5ccccc45)C(=O)N[C@@H](CCC(N)=O)C(N)=O)(C3)NC(=O)[C@H](CC(C)C)NC(=O)[C@H](Cc3ccccc3)NC(=O)[C@H](C)NC(=O)[C@H](C)NC(=O)[C@H](CC(=O)O)NC(=O)[C@H](CC(=O)O)NC1=O)NC(=O)[C@H](CC(C)(C)C)NC(=O)[C@H](CC(=O)O)NC2=O (stereo partly drawn) [I-1324, PL3-Asp-Npg-B5-Asp-Asp-Ala-Ala-Phe-Leu-PyrS2-2BrF-BztA-Gln-NH2]

solubility at 15 min: 15 µM (≈ 28.5 µg/mL)
SMILES: CC(=O)N1CCC[C@]12CC=CCCCC1(CCCC=CCCCOC(=O)N3CC[C@@](C(=O)N[C@@H](Cc4ccsc4)C(=O)N[C@@H](Cc4csc5ccccc45)C(=O)N[C@@H](CCC(N)=O)C(N)=O)(C3)NC(=O)[C@H](CC(C)C)NC(=O)[C@H](Cc3ccccc3)NC(=O)[C@H](C)NC(=O)[C@H](C)NC(=O)[C@H](CC(=O)O)NC(=O)[C@H](CCN)NC1=O)NC(=O)[C@H](CC(C)(C)C)NC(=O)[C@H](CC(=O)O)NC2=O (stereo partly drawn) [I-1217, Ac-PL3-Asp-Npg-B5-Dab-Asp-Ala-Ala-Phe-Leu-PyrS2-3Thi-BztA-Gln-NH2]

solubility at 15 min: 44 µM (≈ 84.4 µg/mL)
SMILES: CC(=O)N1CCC[C@]12CC=CCCCC1(CCCC=CCCCOC(=O)N3CC[C@@](C(=O)N[C@@H](Cc4cccs4)C(=O)N[C@@H](Cc4csc5ccccc45)C(=O)N[C@@H](CCC(N)=O)C(N)=O)(C3)NC(=O)[C@H](CC(C)C)NC(=O)[C@H](Cc3ccccc3)NC(=O)[C@H](C)NC(=O)[C@H](C)NC(=O)[C@H](CC(=O)O)NC(=O)[C@H](CC(=O)O)NC1=O)NC(=O)[C@H](CC(C)(C)C)NC(=O)[C@H](CC(=O)O)NC2=O (stereo partly drawn) [I-1344, PL3-Asp-Npg-B5-Asp-Asp-Ala-Ala-Phe-Leu-PyrS2-2Thi-BztA-Gln-NH2]

Solubility: 10 µM (≈ 18.7 µg/mL)
SMILES: CC(=O)N1CCC[C@]12CC=CCCCC1(CCCC=CCCCOC(=O)N3CC[C@@](C(=O)N[C@@H](Cc4ccccc4)C(=O)N[C@@H](Cc4csc5ccccc45)C(=O)N[C@H](C(N)=O)[C@@H](C)O)(C3)NC(=O)[C@H](CC(C)C)NC(=O)[C@H](Cc3ccccc3)NC(=O)[C@H](C)NC(=O)[C@H](C)NC(=O)[C@H]([C@@H](C)O)NC(=O)[C@H](CC(N)=O)NC1=O)NC(=O)[C@H](CC(C)(C)C)NC(=O)[C@H](CC(=O)O)NC2=O (single isomer, unassigned) [I-1299, Ac-PL3-Asp-Npg-B5-Asn-Thr-Ala-Ala-Phe-Leu-PyrS2-Phe-BztA-Thr-NH2]

Solubility: 50 µM (≈ 95.6 µg/mL)
SMILES: CC(=O)N1CCC[C@]12CC=CCCCC1(CCCC=CCCCOC(=O)N3CC[C@@](C(=O)N[C@H](Cc4ccccc4)C(=O)N[C@@H](Cc4csc5ccccc45)C(=O)N[C@@H](CCC(N)=O)C(N)=O)(C3)NC(=O)[C@H](CC(N)=O)NC(=O)[C@H](Cc3ccccc3)NC(=O)[C@H](C)NC(=O)[C@H](C)NC(=O)[C@H](CC(=O)O)NC(=O)[C@H](CC(=O)O)NC1=O)NC(=O)[C@H](CC(C)(C)C)NC(=O)[C@H](CC(=O)O)NC2=O (stereo partly drawn) [I-1346, PL3-Asp-Npg-B5-Asp-Asp-Ala-Ala-Phe-Asn-PyrS2-dPhe-BztA-Gln-NH2]

Solubility: 10 µM (≈ 19.7 µg/mL)
SMILES: CC(=O)N1CCC[C@]12CC=CCCCC1(CCCC=CCCCOC(=O)N3CC[C@@](C(=O)N[C@@H](Cc4ccccc4)C(=O)N[C@@H](Cc4csc5ccccc45)C(=O)N[C@@H](CCC(N)=O)C(N)=O)(C3)NC(=O)[C@H](CC(C)C)NC(=O)[C@H](Cc3ccccc3)NC(=O)[C@H](C)NC(=O)[C@H](CCCCNC(C)C)NC(=O)[C@H](CCCCN)NC(=O)[C@H](CC(N)=O)NC1=O)NC(=O)[C@H](C)NC(=O)[C@H](CC(=O)O)NC2=O (stereo partly drawn) [I-1380, Ac-PL3-Asp-Ala-B5-Asn-Lys-iPrLys-Ala-Phe-Leu-PyrS2-Phe-BztA-Gln-NH2]

Solubility: 10 µM (≈ 18.4 µg/mL)
SMILES: CC(=O)N1CCC[C@]12CC=CCCCC1(CCCC=CCCCOC(=O)N3CC[C@@](C(=O)N[C@@H](Cc4ccccc4)C(=O)N[C@@H](Cc4csc5ccccc45)C(=O)N[C@@H](CCC(N)=O)C(N)=O)(C3)NC(=O)[C@H](CC(C)C)NC(=O)[C@H](Cc3ccccc3)NC(=O)[C@H](C)NC(=O)[C@H](C)NC(=O)[C@H]([C@@H](C)O)NC(=O)[C@H](CC(N)=O)NC1=O)NC(=O)[C@H](C)NC(=O)[C@H](CC(=O)O)NC2=O (single isomer, unassigned) [I-1295, Ac-PL3-Asp-Ala-B5-Asn-Thr-Ala-Ala-Phe-Leu-PyrS2-Phe-BztA-Gln-NH2]

— US20240116985A1, “STAPLED PEPTIDES AND METHODS THEREOF” (priority 2020, published 2024)
